Results on five molecules are retold here after ChEMBL document CHEMBL4699524 (Bioorg Med Chem Lett, 2020).

Bounds are passed on as bounds.

By IC50 is commonly meant the midpoint of a concentration-inhibition curve.

For data set [1], the system named is Plasmodium falciparum. In words: Antiplasmodial activity against chloroquine-sensitive Plasmodium falciparum NF54 by LDH assay. The format is functional, organism-based.
Data set [2] deals with Plasmodium falciparum. In words: Antiplasmodial activity against chloroquine-resistant Plasmodium falciparum Dd2 by LDH assay. The format is functional, organism-based.
A further data set deals with CHO. In words: Cytotoxicity against CHO cells assessed as reduction in cell viability by MTT assay. The format is cell-based. The following applies: Cricetulus griseus. A general note: Tetrazolium dyes change colour on reduction, which living cells bring about.
Data set [3] deals with Leishmania donovani. In words: Antileishmanial activity against Leishmania donovani 1S promastigotes assessed as inhibition of parasite growth incubated for 72 hrs by resazurin dye based assay. The format is functional, organism-based. In general terms: Resazurin is reduced to fluorescent resorufin, in cell work by metabolically active cells.
Data set [4] has as its system Leishmania donovani. In words: Antileishmanial activity against Leishmania donovani 9515 promastigotes assessed as inhibition of parasite growth incubated for 72 hrs by resazurin dye based assay. The format is functional, organism-based. The following applies: Leishmania donovani, 9515, 72 h.
A further data set has as its system Leishmania major. In words: Antileishmanial activity against Leishmania major IR-173 promastigotes assessed as inhibition of parasite growth incubated for 72 hrs by resazurin dye based assay. The format is functional, organism-based. The following applies: IR-173, 72 h.
A short description of data set [5]: Selectivity index, ratio of IC50 for CHO cells to IC50 for antileishmanial activity against Leishmania donovani 9515 by resazurin dye based assay. The settings on record: hamster, read-out: Ratio IC50. The format is toxicity.
Data set [6] can be described thus: Selectivity index, ratio of IC50 for CHO cells to IC50 for antileishmanial activity against Leishmania donovani 1S by resazurin dye based assay. The following applies: hamster, read-out: Ratio IC50. The format is toxicity.
Data set [7] is described as follows: Selectivity index, ratio of IC50 for antileishmanial activity against Leishmania major IR-173 promastigotes to IC50 for antileishmanial activity against Leishmania donovani 1S promastigotes incubated for 72 hrs by resazurin dye based assay. The format is functional.
The nature of data set [8]: Selectivity index, ratio of IC50 for antileishmanial activity against Leishmania major IR-173 promastigotes to IC50 for antileishmanial activity against Leishmania donovani 9515 promastigotes incubated for 72 hrs by resazurin dye based assay. The format is functional.
The next data set can be described thus: in vitro. The following applies: hamster, CHO cells.
Data set [9] concerns Leishmania donovani. In words: Potency index, ratio of dihydroartemisinin IC50 to test compound IC50 for antileishmanial activity against Leishmania donovani 1S promastigotes incubated for 72 hrs by resazurin dye based assay. The format is functional.
Data set [10] concerns Leishmania donovani. In words: Potency index, ratio of dihydroartemisinin IC50 to test compound IC50 for antileishmanial activity against Leishmania donovani 9515 promastigotes incubated for 72 hrs by resazurin dye based assay. The format is functional.
The subject of data set [11] is Leishmania donovani. In words: Potency index, ratio of artemether IC50 to test compound IC50 for antileishmanial activity against Leishmania donovani 1S promastigotes incubated for 72 hrs by resazurin dye based assay. The format is functional.
Data set [12] concerns Leishmania donovani. In words: Potency index, ratio of artemether IC50 to test compound IC50 for antileishmanial activity against Leishmania donovani 9515 promastigotes incubated for 72 hrs by resazurin dye based assay. The format is functional.
The subject of data set [13] is Leishmania donovani. In words: Potency index, ratio of artesunate IC50 to test compound IC50 for antileishmanial activity against Leishmania donovani 1S promastigotes incubated for 72 hrs by resazurin dye based assay. The format is functional.
Data set [14] deals with Leishmania donovani. In words: Potency index, ratio of artesunate IC50 to test compound IC50 for antileishmanial activity against Leishmania donovani 9515 promastigotes incubated for 72 hrs by resazurin dye based assay. The format is functional.

Regarding `C[C@@H]1CC[C@H]2C(C)(C=O)O[C@@H]3O[C@@]4(C)CC[C@@H]1[C@]32OO4` (some centres undefined), the IC50 was 0.0069 µM in the data set with Plasmodium falciparum [1]; 0.0041 µM in the data set with Plasmodium falciparum [2]; more than 100 µM in the data set with CHO; 8.07 µM in the data set on Leishmania donovani [3]; 2.55 µM in the data set with Leishmania donovani [4]; 26.6 µM with Leishmania major. The selectivity ratio was 13 in data set [5], more than 39 in [6] and 4 in the data set “in vitro”. In addition, the Ratio IC50 in [7] and in data set [8] was 3 throughout.

Regarding `C[C@@H]1CC[C@H]2C(C)(COC(=O)c3ccc(-c4ccccc4)cc3)O[C@@H]3O[C@@]4(C)CC[C@@H]1[C@]32OO4` (some centres undefined), the IC50 in the data set with Plasmodium falciparum [1] was 0.0073 µM; in the data set on Plasmodium falciparum [2] it was 0.0069 µM; in the data set with CHO it was more than 100 µM; in the data set with Leishmania donovani [3] it was 4.42 µM; with Leishmania donovani [4] it was 2.8 µM; with Leishmania major, 9.87 µM. In addition, the values for the selectivity ratio (in data set [5]; in data set [6]; in “in vitro”) were 23, more than 36 and 10, respectively. The “Ratio IC50” value in the data set with Leishmania donovani [9], in the data set with Leishmania donovani [10], in the data set with Leishmania donovani [11], in the data set on Leishmania donovani [12], in the data set with Leishmania donovani [13] and with Leishmania donovani [14] was 30 each time.

As to `Cc1csc(C(=O)OCC2(C)O[C@@H]3O[C@@]4(C)CC[C@H]5[C@H](C)CC[C@@H]2[C@@]35OO4)c1` (some centres undefined), the IC50 is 0.0072 µM in the data set on Plasmodium falciparum [1]; 0.0071 µM in the data set with Plasmodium falciparum [2]; more than 100 µM with CHO; 5.61 µM in the data set with Leishmania donovani [3]; 6.48 µM with Leishmania donovani [4]; 4.26 µM with Leishmania major. The selectivity ratio in [5] was 18; in data set [6], more than 15; in the data set “in vitro”, 24. Also, the “Ratio IC50” value with Leishmania donovani [9], with Leishmania donovani [10], in the data set on Leishmania donovani [11], with Leishmania donovani [12], in the data set with Leishmania donovani [13] and in the data set with Leishmania donovani [14] was 30 in each case.

In the case of `CNCCCNc1c2ccc(Cl)cc2nc2ccc(OC)cc12`, the IC50 came out at 0.0091 µM in the data set on Plasmodium falciparum [1]; 0.117 µM with Plasmodium falciparum [2]; 0.5 µM with CHO; 3.7 µM with Leishmania donovani [3]; 3.33 µM in the data set on Leishmania donovani [4]; 1.43 µM in the data set with Leishmania major. Besides, the selectivity ratio came out at 0.1 in data set [5], 0.2 in data set [6] and 0.4 in “in vitro”.

Regarding `C[C@@H]1CC[C@H]2C(C)(COC(=O)c3cccs3)O[C@@H]3O[C@@]4(C)CC[C@@H]1[C@]32OO4` (some centres undefined), the IC50 in the data set on Plasmodium falciparum [1] is 0.0048 µM; in the data set with Plasmodium falciparum [2], 0.0059 µM; in the data set on CHO, more than 100 µM; with Leishmania donovani [3], 11.5 µM; in the data set with Leishmania donovani [4], more than 100 µM; in the data set with Leishmania major, 9.93 µM. Also, the selectivity ratio in data set [5] was 9; in the data set “in vitro” it was 10. Also, the “Ratio IC50” value with Leishmania donovani [9], in the data set on Leishmania donovani [10], in the data set on Leishmania donovani [11], in the data set with Leishmania donovani [12], in the data set on Leishmania donovani [13] and in the data set with Leishmania donovani [14] was 30 each time.
